Reference: US4432983A (Research Corporation, priority 1981, dated 1984)
“Also recorded” adds a separate entry of the source. Each block holds one compound with its values, some of them ahead of it.

Experiments:
[1] = target: T1, histamine H2-receptor (isolated guinea pig right atrium) (Cavia porcellus, UniProt P47747); test: Histamine H2-receptor antagonism: histamine-induced chronotropic response of isolated guinea pig right atrium; conditions: for ED50 of histamine (95% CL): histamine ED50 for increase in heart rate, 10^-6 M propranolol; for ED50 of histamine (95% CL) / Slope (95% CL): alone (control) or in presence of 10^-6 M compound, 95% CL in brackets; for slope / shift of the histamine log dose-response curve in presence of compound / histamine H2-receptor antagonist activity: result in words; for histamine H2-receptor antagonist activity: 10^-6 M, guinea pig right atrium; for Slope (95% CL): slope of histamine log dose-response regression line; for ED50 of histamine on the right atrium: histamine alone or with 10^-6 M antagonist, ± as printed in text
T1 construct: All other tissue was carefully trimmed away, leaving only the right atrium; from tissue; host or cells: isolated right atrium of guinea pig (Hartley strain) heart
T1 sequence (P47747 whole entry): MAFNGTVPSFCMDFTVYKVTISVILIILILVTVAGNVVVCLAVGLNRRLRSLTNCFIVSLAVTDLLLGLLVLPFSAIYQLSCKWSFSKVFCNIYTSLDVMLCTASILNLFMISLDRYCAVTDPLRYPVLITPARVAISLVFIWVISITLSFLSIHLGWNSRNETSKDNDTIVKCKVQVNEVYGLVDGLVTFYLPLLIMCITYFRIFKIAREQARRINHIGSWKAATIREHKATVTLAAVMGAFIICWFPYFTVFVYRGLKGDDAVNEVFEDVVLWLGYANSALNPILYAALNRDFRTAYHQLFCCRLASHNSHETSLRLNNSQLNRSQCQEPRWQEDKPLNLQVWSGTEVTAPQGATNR
Method: Guinea pigs (Hartley strain) of either sex (400-700 g) were allowed at least two weeks acclimation period. The animals were housed two per cage in wire-meshed bottom stainless steel cages in animal quarters maintained on a 12 hour light:12 hour dark cycle with ambient temperature of approximately 24° C. Food (Ralston-Purina guinea pig chow #5025) and water were provided ad libitum.
(§1) The animals were stunned by a blow to the head and the heart was quickly removed and placed in Tyrode's solution (composition in g/L of distilled water: NaCl, 8.00; KCl, 0.20; MgSO4.7 H2 O, 0.10; CaCl2, 0.20; NaH2 PO4, 0.05; NaHCO3, 1.00; glucose, 1.00) at room temperature. All other tissue was carefully trimmed away, leaving only the right atrium. The base of the atrium was attached to a fixed pin in a 50 mL Magnus bath of the overflow type, while the atrial apex was similarly connected to a physiograph (Narco Bio-Systems) via a photoelectric force transducer (Narco Bio-Systems, sensitivity=0.05 g/cm). A 400 mg tension was constantly applied to the tissue. The Magnus bath was surrounded by water maintained at 37° C. with a constant temperature circulating pump. The bath was continually oxygenated (95% O2, 5% CO2) via a sintered glass gas delivery tube directly beneath the tissue support base.
Propanolol (1×10^-6 M) was added to each preparation in order to eliminate the influence of endogenously stored catecholamine release. Following the addition of propanolol, test compound was added and the tissue was allowed to equilibrate for 30 minutes.
Solutions of the test compounds were similarly prepared.
A straight line was fitted to the data points of each determination within each group by linear regression analysis. The slope and the ED50 were calculated from the regression line, the slopes and ED50 values of each group were averaged, and the standard deviations were calculated. Calculation of the linear regression gave values for the correlation coefficient (r) slope, average of x values, average of y values, and log ED50. With this information a straight line representing a mean of the data from the separate determinations of each group could be plotted, i.e. a straight line passing through the mean x value and the mean y value and having the mean slope. The 95 percent confidence limits were calculated using the following formula: confidence limits=±ts√N where t=Student's t value, s=standard deviation, and N=number of determinations.

[2] = target: histamine H1-receptor (isolated guinea pig ileum) (Cavia porcellus, UniProt P31389); test: Histamine H1-receptor antagonism: histamine-induced contraction of isolated guinea pig ileum; conditions: result in words, 1×10^-6 M
Sequence of histamine H1-receptor (isolated guinea pig ileum) (P31389 whole entry): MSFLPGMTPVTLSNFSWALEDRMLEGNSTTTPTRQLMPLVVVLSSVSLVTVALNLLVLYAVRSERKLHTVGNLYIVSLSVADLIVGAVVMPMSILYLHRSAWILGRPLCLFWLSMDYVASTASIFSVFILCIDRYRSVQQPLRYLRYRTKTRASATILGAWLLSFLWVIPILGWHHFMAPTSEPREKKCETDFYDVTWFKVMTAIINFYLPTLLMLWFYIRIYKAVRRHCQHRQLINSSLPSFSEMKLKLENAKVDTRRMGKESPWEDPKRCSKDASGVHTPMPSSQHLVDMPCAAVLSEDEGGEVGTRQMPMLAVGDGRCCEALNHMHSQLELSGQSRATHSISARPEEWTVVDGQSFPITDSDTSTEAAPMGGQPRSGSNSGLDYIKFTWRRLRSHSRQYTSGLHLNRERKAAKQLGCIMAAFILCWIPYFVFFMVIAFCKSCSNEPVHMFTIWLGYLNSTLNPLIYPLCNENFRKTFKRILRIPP
Method: Compounds 11, 17, 18, and 19 were screened for H1 -antihistaminic activity by observing if any significant blockage of histamine-induced contraction of the isolated guinea pig ileum occurred. After sacrificing the guinea pig by a blow to the head, longitudinal segments of the terminal ileum were removed and freed of mesentery and blood vessels. The same apparatus and physiological solution employed in the atrial preparation were used in these experiments. The tissue was loaded with a 500 mg tension and adjustments were made repeatedly until the baseline stabilized at this tension load. Atropine sulfate (1×10^-6 M) was added to block the influence of endogenously stored acetylcholine and the preparation was allowed to equilibrate for 15 minutes before any other compounds were added. The concentration of test compound used was 1×10^-6 M. Visual determination of the absence of significant reduction in histamine-induced contractions of the ileum in the presence and absence of each test compound was interpreted as an absence of H1 -antihistaminic activity. Generally, H1 -antagonism is considered to be potent if significant reduction in ileal contractility occurs with antagonist concentrations less than micromolar.

[3] = test system: isolated right atrium; test: Agonist activity: effect of compound alone on heart rate or force of isolated right atrium; design: species or system guinea pig; conditions: cumulative additions, 10^-5 to 10^-3 M
Method: as §1
A KB value was not calculated since the utility of these values is contingent upon the presence of competitive inhibition. […] A non-competitive component of the antagonism would be expected to depress the curve. […] An additional experiment adding only 11 to the bath was carried out in an attempt to detect possible interfering agonist activity. […] The reason for this atypical curve is not known.

[4] = test system: H2-receptor (guinea pig isolated right atrium); conditions: cited from earlier work
[5] = test system: histamine-induced gastric acid secretion; conditions: dogs; cited from earlier work
[6] = test system: peptic ulcers; conditions: cited from earlier work
[7] = target: H2-receptor; conditions: previously reported; read-out: KB (apparent dissociation constant), previously reported; cited from earlier work

SMILES: CNC(=S)N[C@@H]1C[C@H]2CC[C@@H](C1)N2Cc1nc[nH]c1C [Compound 11, N-Methyl-N'-[8-(5-methylimidazol-4-yl)methyl-1αH,5αH-nortropan-3β-yl]thiourea]
- maximum response obtained with histamine in presence of compound ([1]; 10^-6 M compound): 100%
- ED50 of histamine (95% CL) [1]: 40.7 (27.5-60.3) × 10^-7 M
- slope / shift of the histamine log dose-response curve in presence of compound ([1]; 10^-6 M compound): significantly steeper (P<0.05) than for metiamide; also recorded: shifted to higher concentrations
- histamine H2-receptor antagonist activity [1]: active; also recorded: approximately the same antagonist activity as metiamide
- histamine H2-receptor antagonist activity ([1]; listed as β-isomer): high H2 -antagonist activity
- Slope (95% CL) [1]: 0.99 (0.95-1.03)
- H1-antihistaminic activity [2]: none of these compounds demonstrated significant H1 -antihistiminic activity
- effect on heart rate or force of isolated right atrium, compound alone [3]: without effect on heart rate or force

SMILES: CNC(=S)N[C@H]1C[C@H]2CC[C@@H](C1)N2Cc1nc[nH]c1C [Compound 17, N-Methyl-N'-[8-(5-methylimidazol-4-yl)methyl-1αH,5αH-nortropan-3α-yl]thiourea]
- ED50 of histamine (95% CL) [1]: 11.0 (4.37-27.5) × 10^-7 M
- histamine H2-receptor antagonist activity [1]: without any significant activity; also recorded: None of these compounds demonstrated significant histamine antagonist activity
- Slope (95% CL) [1]: 0.64 (0.18-1.10)
- H1-antihistaminic activity [2]: None of these compounds demonstrated significant histamine antagonist activity

SMILES: CNC(=NC#N)N[C@H]1C[C@H]2CC[C@@H](C1)N2Cc1nc[nH]c1C [Compound 18, N"-Cyano-N-methyl-N'-[8-(5-methylimidazol-4-yl)methyl-1αH,5αH-nortropan-3α-yl]guanidine]
- ED50 of histamine (95% CL) [1]: 11.0 (5.01-24.0) × 10^-7 M
- histamine H2-receptor antagonist activity [1]: without significant activity; also recorded: None of these compounds demonstrated significant histamine antagonist activity
- Slope (95% CL) [1]: 0.64 (0.18-1.10)
- H1-antihistaminic activity [2]: None of these compounds demonstrated significant histamine antagonist activity

SMILES: CNC(=NC#N)N[C@@H]1C[C@H]2CC[C@@H](C1)N2Cc1nc[nH]c1C [Compound 19, N"-Cyano-N-methyl-N'-[8-(5-methylimidazol-4-yl)methyl-1αH,5αH-nortropan-3β-yl]guanidine]
- ED50 of histamine (95% CL) [1]: 6.92 (0.22-138.0) × 10^-7 M
- histamine H2-receptor antagonist activity [1]: without significant activity; also recorded: None of these compounds demonstrated significant histamine antagonist activity
- Slope (95% CL) [1]: 0.58 (0.23-0.93)
- H1-antihistaminic activity [2]: None of these compounds demonstrated significant histamine antagonist activity

SMILES: CNC(=C[N+](=O)[O-])NCCSCc1ccc(CN(C)C)o1 [Ranitidine]
- H2 antagonism [4]: competitive antagonist, more potent than cimetidine
- prevention of histamine-induced gastric acid secretion [5]: more potent than cimetidine

SMILES: CN/C(=N/CCSCc1nc[nH]c1C)NC#N [cimetidine, reference compound]
- ED50 of histamine (95% CL) [1]: 49.0 (43.7-55.0) × 10^-7 M
- ED50 of histamine on the right atrium [1]: 49.0±12.0 ×10^-7 M
- histamine H2-receptor antagonist activity [1]: significant antagonism of the chronotropic effect of histamine
- Slope (95% CL) [1]: 0.67 (0.28-1.06)
- safety in clinical use [6]: generally a safe agent

SMILES: NCCc1c[nH]cn1 [histamine, reference compound]
- Slope (95% CL) [1]: 0.63 (0.50-0.76)

- Kb ([1]; KB=[B]/(dose ratio-1), 10^-6 M antagonist, read-out: KB (apparent dissociation constant)): 200 nM
- ED50 of histamine on the right atrium [1]: 49.0±12.0 ×10^-7 M
- Slope (95% CL) [1]: 0.47 (0.41-0.53)
SMILES: CNC(=S)NCCSCc1nc[nH]c1C [metiamide, reference compound]
- ED50 of histamine (95% CL) [1]: 49.0 (30.9-77.6) × 10^-7 M
- slope / shift of the histamine log dose-response curve in presence of compound ([1]; 10^-6 M compound): parallel shift of the dose-response curves of histamine
- histamine H2-receptor antagonist activity [1]: significant antagonism of the chronotropic effect of histamine
- healing of peptic ulcers ([6]; clinical trials): effective in promoting the healing of peptic ulcers
- safety in clinical use [6]: found to produce agranulocytosis
- Kb [7]: 920 nM
